Assay results published in DBAASP.
Values after ≈ are worked out from the molar mass of the structure shown. Values joined by “and” are separate entries in the source; they are usually repeats but may differ in a detail not shown here. Equal values may be shown once. Each block holds one compound with its values, some of them ahead of it.

Columns and labels:
Experiment in all cases: ≥ marks a high value that may be exact or a test limit, other limits are often not marked, values filed in µg/mL are converted to µM
[1] = test system: Candida albicans ATCC 90028
[2] = test system: Candida albicans NCPF 1467
[3] = test system: Escherichia coli ATCC 11775
[4] = test system: Escherichia coli ATCC 25922
[5] = test system: Escherichia coli NCTC 10418
[6] = test system: Staphylococcus aureus ATCC 12493
[7] = test system: Staphylococcus aureus ATCC 12600
[8] = test system: Staphylococcus aureus ATCC 25923
[9] = test system: Staphylococcus aureus NCTC 10788
[10] = test system: Staphylococcus aureus NCTC 8325
Escherichia coli W160-37 = test system: Escherichia coli W160-37
Pseudomonas aeruginosa = test system: Pseudomonas aeruginosa
Staphylococcus aureus = test system: Staphylococcus aureus
[11] = test system: Bacillus subtilis MTCC 14416
Escherichia coli MG1655 = test system: Escherichia coli MG1655
[12] = test system: Pseudomonas aeruginosa ATCC 27853
[13] = test system: Staphylococcus aureus MTCC 9542
Vibrio cholerae = test system: Vibrio cholerae
Botrytis cinerea = test system: Botrytis cinerea
[14] = test system: Candida albicans ATCC 10231
[15] = test system: Bacillus subtilis ATCC 62037
[16] = test system: Cryptococcus neoformans ATCC 34881
[17] = test system: Escherichia coli ATCC 27325
[18] = test system: Pseudomonas putida ATCC 17426
[19] = test system: Saccharomyces cerevisiae ATCC 44774
[20] = test system: Salmonella enterica subsp. enterica serovar Enteritidis ATCC 13076
[21] = test system: Staphylococcus aureus ATCC 15752
[22] = test system: Streptococcus mutans ATCC 25175
[23] = test system: Enterococcus faecalis ATCC 29212
[24] = test system: Staphylococcus aureus ATCC 43300
[25] = test system: Bacillus subtilis IFO 3513
[26] = test system: Escherichia coli IFO 12734
[27] = test system: Staphylococcus aureus IFO 12732
[28] = test system: Bacillus megaterium ATCC 19213
[29] = test system: Bacillus subtilis NBRC 3513
[30] = test system: Staphylococcus aureus NBRC 12732
[31] = test system: Staphylococcus epidermidis NBRC 12933
[32] = test system: Candida albicans ATCC 64550
[33] = test system: Pseudomonas aeruginosa PAO1

SMILES: CC[C@H](C)[C@@H]1NC(=O)[C@H](CC(C)C)NC(=O)[C@@H](NC(=O)[C@H](Cc2ccccc2)NC(=O)[C@H](CC(C)C)NC(=O)[C@H](CCCCN)NC(=O)[C@@H]2CCCN2C(=O)[C@H](CC(C)C)NC(=O)[C@H](C)NC(=O)[C@H](C)NC(=O)[C@H](CC(C)C)NC(=O)[C@H](C)NC(=O)[C@H](CC(C)C)NC(=O)[C@H](CO)NC(=O)[C@H](CC(C)C)NC(=O)[C@@H](N)Cc2ccccc2)CSSC[C@@H](C(=O)O)NC(=O)[C@H](CCCCN)NC(=O)[C@H](CCCCN)NC(=O)[C@H](Cc2ccccc2)NC1=O [FLSLALAALPKLFCLIFKKC]
MIC [1]: ≥ 100 µM
MIC [2]: ≥ 32 µM
MIC [3]: 25 µM (≈ 55.9 µg/mL)
MIC [4]: > 60 µM and 100 µM
MIC [5]: ≥ 512 µM
MIC [6]: ≥ 32 µM
MIC [7]: 12.5 µM (≈ 28 µg/mL)
MIC [8]: > 60 µM
MIC [9]: ≥ 32 µM
MIC [10]: 13 µM (≈ 29.1 µg/mL)

SMILES: CC[C@H](C)[C@H](NC(=O)CN)C(=O)N[C@@H](Cc1c[nH]c2ccccc12)C(=O)N[C@@H](CCCCN)C(=O)N[C@@H](CO)C(=O)N[C@@H](CC(C)C)C(=O)N[C@@H](Cc1ccccc1)C(=O)N[C@H](C(=O)N[C@@H](CCCCN)C(=O)N[C@@H](CC(C)C)C(=O)N[C@@H](CC(C)C)C(=O)N[C@@H](CCCCN)C(=O)NCC(N)=O)[C@@H](C)O [GIWKSLFTKLLKG]
MIC (Escherichia coli W160-37): 3.35 µM (≈ 5 µg/mL)
MIC (Pseudomonas aeruginosa): 10.1 µM (≈ 15 µg/mL)
MIC (Staphylococcus aureus): 6.71 µM (≈ 9.99 µg/mL)

SMILES: CC[C@H](C)[C@H](NC(=O)[C@H](CC(C)C)NC(=O)[C@@H]1CCCN1C(=O)[C@H](Cc1c[nH]c2ccccc12)NC(=O)[C@H](CCCCN)NC(=O)[C@H](Cc1c[nH]c2ccccc12)NC(=O)[C@@H]1CCCN1C(=O)[C@H](CC(C)C)NC(=O)[C@H](CC(C)C)NC(=O)[C@@H]1CCCN1C(=O)[C@H](Cc1c[nH]c2ccccc12)NC(=O)[C@H](CCCN=C(N)N)NC(=O)[C@@H](N)CCCN=C(N)N)C(N)=O [RRWPLLPWKWPLI]
MIC [25]: 3.55 µM (≈ 6.25 µg/mL)
MIC [26]: 14.2 µM (≈ 25 µg/mL)
MIC [27]: 3.55 µM (≈ 6.25 µg/mL)

SMILES: CC(C)C[C@H](NC(=O)[C@H](CCCCN)NC(=O)[C@H](CC(C)C)NC(=O)[C@H](CC(C)C)NC(=O)[C@H](Cc1c[nH]c2ccccc12)NC(=O)[C@@H](N)CCCN=C(N)N)C(=O)NCC(=O)N[C@@H](Cc1cnc[nH]1)C(=O)N[C@@H](Cc1cnc[nH]1)C(=O)NCC(=O)N[C@@H](CCCN=C(N)N)C(=O)O [RWLLKLGHHGR]
MIC [28]: ≥ 32 µM
MIC [29]: ≥ 64 µM
MIC [30]: ≥ 64 µM
MIC [31]: ≥ 128 µM

SMILES: CC(C)[C@H](NC(=O)[C@H](CCCN=C(N)N)NC(=O)[C@@H](NC(=O)[C@H](CCCN=C(N)N)NC(=O)[C@H](Cc1c[nH]c2ccccc12)NC(=O)[C@H](CCCN=C(N)N)NC(=O)[C@@H](N)Cc1c[nH]c2ccccc12)C(C)C)C(=O)N[C@@H](Cc1c[nH]c2ccccc12)C(=O)N[C@@H](CCCN=C(N)N)C(N)=O [WRWRVRVWR]
MIC [32]: ≥ 100 µM
MIC [33]: 1.79 µM (≈ 2.5 µg/mL)

Further lines, with some results ahead:

MIC [11]: ≥ 51 µM
MIC (Escherichia coli MG1655): ≥ 51 µM
MIC [12]: > 51 µM
MIC [13]: 25.5 µM (≈ 49.9 µg/mL)
SMILES: CC[C@H](C)[C@@H]1NC(=O)[C@H](CCCCN)NC(=O)[C@@H](NC(=O)[C@H](CC(C)C)NC(=O)[C@@H](NC(=O)[C@H](CCC(N)=O)NC(=O)[C@@H]2CCCN2C(=O)[C@H](CC(C)C)NC(=O)[C@H](Cc2ccccc2)NC(=O)[C@H](CC(N)=O)NC(=O)[C@H](C)NC(=O)[C@H](C)NC(=O)[C@H](CC(C)C)NC(=O)CN)[C@@H](C)CC)CSSC[C@@H](C(N)=O)NC(=O)[C@H](CCCCN)NC(=O)[C@H](CCCN=C(N)N)NC(=O)[C@H](C)NC1=O [GLAANFLPQILCKIARKC]
MIC (Vibrio cholerae): 25.5 µM (≈ 49.9 µg/mL)

MIC (Botrytis cinerea): 5 µM (≈ 8.06 µg/mL)
MIC [14]: 100 µM (≈ 161 µg/mL)
MIC [3]: 25 µM (≈ 40.3 µg/mL)
MIC [7]: ≥ 100 µM
SMILES: CC[C@H](C)[C@H](N)C(=O)N[C@@H](CC(N)=O)C(=O)N[C@@H](CC(C)C)C(=O)N[C@@H](CCCCN)C(=O)NCC(=O)N[C@@H](CC(C)C)C(=O)N[C@H](C(=O)N[C@@H](CCCCN)C(=O)N[C@@H](CCCCN)C(=O)N[C@H](C(=O)N[C@@H](C)C(=O)N[C@@H](CO)C(=O)N[C@@H](CC(C)C)C(=O)N[C@@H](CC(C)C)C(=O)N[C@H](C(=O)O)[C@@H](C)O)C(C)C)[C@@H](C)CC [INLKGLIKKVASLLT]

MIC [15]: 0.395 µM (≈ 1 µg/mL)
MIC [14]: 0.395 µM (≈ 1 µg/mL)
MIC [16]: 0.395 µM (≈ 1 µg/mL)
MIC [17]: 0.198 µM (≈ 0.5 µg/mL)
MIC [18]: 0.395 µM (≈ 1 µg/mL)
MIC [19]: 0.395 µM (≈ 1 µg/mL)
MIC [20]: 0.395 µM (≈ 1 µg/mL)
MIC [21]: 0.198 µM (≈ 0.5 µg/mL)
MIC [22]: 0.395 µM (≈ 1 µg/mL)
SMILES: CC[C@H](C)[C@H](NC(=O)[C@@H]1CCCN1C(=O)[C@H](Cc1c[nH]c2ccccc12)NC(=O)[C@H](CCC(N)=O)NC(=O)[C@H](CCCCN)NC(=O)[C@H](CC(C)C)NC(=O)[C@H](CC(C)C)NC(=O)[C@@H](N)CCCCN)C(=O)NCC(=O)N[C@@H](CCCCN)C(=O)N[C@@H](CC(C)C)C(=O)N[C@@H](CC(C)C)C(=O)N[C@@H](CCCCN)C(=O)N[C@@H](CCCCN)C(=O)N[C@@H](CC(C)C)C(=O)N[C@@H](CC(C)C)C(=O)N[C@@H](CCCCN)C(=O)N[C@@H](CCCCN)C(=O)N[C@@H](CC(C)C)C(=O)N[C@@H](CC(C)C)C(=O)N[C@@H](CCCCN)C(=O)O [KLLKQWPIGKLLKKLLKKLLK]

MIC [11]: 22.2 µM (≈ 50 µg/mL)
MIC [23]: 44.3 µM (≈ 100 µg/mL)
MIC (Escherichia coli MG1655): 11.1 µM (≈ 25 µg/mL)
MIC [12]: > 44.3 µM
MIC [24]: > 44.3 µM
MIC [13]: ≥ 44.3 µM
SMILES: CC[C@H](C)[C@H](NC(=O)[C@H](CCCCN)NC(=O)[C@H](CS)NC(=O)[C@H](CC(C)C)NC(=O)[C@@H](NC(=O)[C@H](CCC(N)=O)NC(=O)[C@@H]1CCCN1C(=O)[C@H](CC(C)C)NC(=O)[C@H](Cc1ccccc1)NC(=O)[C@H](CC(N)=O)NC(=O)[C@H](C)NC(=O)[C@H](C)NC(=O)[C@H](CC(C)C)NC(=O)CNC(=O)[C@H](C)NC(=O)[C@@H](NC(=O)[C@@H](N)CC(C)C)[C@@H](C)CC)[C@@H](C)CC)C(=O)N[C@@H](C)C(=O)N[C@@H](CCCN=C(N)N)C(=O)N[C@@H](CCCCN)C(=O)N[C@@H](CS)C(N)=O [LIAGLAANFLPQILCKIARKC]
MIC (Vibrio cholerae): 11.1 µM (≈ 25 µg/mL)
